{"source": "paper PMC4464647", "about": "“ANO1 (TMEM16A) in pancreatic ductal adenocarcinoma (PDAC)” (Pflugers Archiv, 2014)", "key": {"Capan-1 cells": {"test_system": "Capan-1 cells", "test": "BrdU incorporation cell proliferation assay", "type": "cell-based, human", "details": "Capan-1, inhibitor 20 μM, 24 h", "procedure": "(§1) To assess cell proliferation and apoptosis, cells were plated in duplicates on a 96-well plate and incubated in 100 μl of the cell line appropriate media described above. Cells were transfected with siRNA soon after complete attachment (approx. 3 h after seeding). Cells were treated with vehicle, 20 μM gemcitabine, 20 μM T16Ainh-A01, or 10 μM free NS3728 (see below) after culture in a humidified 37 °C and 5 % CO2 incubator overnight. BrdU incorporation was measured using Cell Proliferation ELISA, BrdU (chemiluminescent) (Roche Diagnostics A/S, Denmark) following the manufacturer’s instructions. Caspases 3, 6, and 7 activation was evaluated using Homogeneous Caspases Assay (fluorimetric) (Roche Diagnostics A/S, Denmark).\n(§2) Fig. 7 VRAC, but not ANO1, regulates cellular proliferation. a Summary of BrdU incorporation in HPDE, Capan-1, AsPC-1, and BxPC-3 cells after various treatments as indicated. Cells were transfected shortly after complete attachment (approx. 3 h) and BrdU incorporation was assessed 36 h after transfection. To investigate effect of inhibitors, cells were incubated for 24 h with respective inhibitor. Values shown are relative to appropriate control. Data shown represents mean ± s.e.m. of n = 4–6 individual experiments. **p ≤ 0.01 and ***p ≤ 0.001 when compared with control"}, "ANO1": {"test_system": "ANO1", "test": "Western blot of ANO1 protein expression after siRNA knockdown", "type": "cell-based, human", "details": "36 h after transfection, β-actin loading control", "procedure": "DharmaFECT 1 Transfection Reagent (Thermo Scientific, Germany) was used for transfection of siRNA targeting ANO1 (50 nM final concentration) or scrambled (5 nM final concentration). Cells were transfected according to the manufacturer’s protocol. Predesigned siRNA oligo was obtained from Sigma-Aldrich (5′-[…][dT][dT]-3′, 5′-[…][dT][dT]-3′) or negative control (Silencer® Negative Control No. 1 siRNA; Ambion, Denmark). ANO1 overexpressing HEK293 cells were generated by adding 0.5 μg/ml mANO1-GFP vector to DMEM containing 1 % v/v penicillin and streptomycin. The mixture was vortexed and incubated for 5 min, and 20 μg/ml polyethylenimine (PEI) was added. The mixture was vortexed again and added drop-wise to 60 % confluent HEK293 cells in DMEM medium containing 5 % v/v FBS and 1 % v/v penicillin and streptomycin after 10 min incubation at room temperature. Media was changed after 4 h incubation at 37 °C and 5 % CO2.\nProtein was isolated from cells 36 h after transfection with siRNA targeting ANO1, in a lysis buffer containing (in mM): 10 Tris–HCl, 10 EDTA, 1 % sodium dodecyl sulfate (SDS), 0.5 % sodium deoxycholate, and 1 % complete protease inhibitor mixture (Roche, Denmark), pH 7.4, and was separated by 7 % SDS-PAGE. Protein was subsequently transferred to nitrocellulose membrane (Novex, Denmark). […]\nFig. 3 ANO1 is the major contributor of CaCC currents in PDAC cells and is sensitive to Cl^− channel inhibitors and siRNA. Whole-cell patch-clamp recordings with 1 μM Ca^2+ in pipette solution. a Representative current traces measured in Capan-1 cells upon exposure to different inhibitors. b Quantification of CaCC currents at +67 mV recorded with inhibitors compared to currents in presence of DMSO; currents of siANO1 cells were compared to those of MOCK transfected cells. c Steady-state I–V relationships of cells transfected with either scrambled siRNA (MOCK) or siRNA targeting ANO1. d Densitometric quantification of Western blot analysis of siRNA knockdown. β-Actin was used as a loading control. […]"}, "AsPC-1 cells": {"test_system": "AsPC-1 cells", "test": "Scratch wound healing assay", "type": "cell-based, human", "details": "AsPC-1, siRNA 50 nM vs scrambled 5 nM, 5 μM aphidicolin", "procedure": "Cells were seeded into Essen ImageLock 96-well plates. Cells were transfected with siRNA shortly after cells completely attached at 80 % confluency. […] The wound confluence was obtained and analyzed by using the IncuCyte phase-contrast imaging and scratch wound assay system and software (Essen Bioscience, USA). Wound closure was assessed by comparing the mean relative wound density (%RWD) according to the following formula: % RWD = 100 × w(t) − w(0)/[…]. Here, w(t) is the density of wounded area at time t and c(t) is the density of cell region at time t. Each experiment was conducted in triplicates.\nWe therefore assessed a possible contribution of ANO1 in PDAC cell migration using wound healing assay. […] The experiments were conducted in the presence of 5 μM aphidicolin to rule out a possible effect on cell proliferation. […] AsPC-1 cells were therefore not well suited for studies of lateral motility.\nFig. 9 ANO1 supports migration of PDAC cells. Wound healing assay is shown as relative wound density (density of wounded area relative to confluency of cell region) over time. Aphidicolin (5 μM) was added to stop proliferation. a AsPC-1 cells and b BxPC-3 cells after transfection with either scrambled siRNA (5 nM) or siRNA targeting ANO1 (50 nM). c BxPC-3 cells in presence of different inhibitors. Data shown represents mean ± s.e.m. of n = 4 experiments; each run was carried out in triplicates"}, "HPDE cells": {"test_system": "HPDE cells", "test": "BrdU incorporation cell proliferation assay", "type": "cell-based, human", "details": "inhibitor 20 μM, 24 h", "procedure": "as §1, §2"}, "[1]": {"test_system": "HPDE, Capan-1, AsPC-1 and BxPC-3 cells", "test": "Homogeneous caspases assay after gemcitabine treatment", "type": "cell-based, human", "details": "T16Ainh-A01, 24 h", "procedure": "as §1, with “Denmark). […]” for “Denmark).”"}, "CFPAC-1": {"test_system": "CFPAC-1", "design": "method as in Mazzone et al. [23]", "details": "CFPAC-1, 10 μM, ref Mazzone et al. [23]; cited from earlier work"}}, "note": "d = 2'-deoxy (DNA)", "data": [{"compound": "CC(C)(C)C1CCc2c(sc(NC(=O)c3ccco3)c2C(=O)O)C1", "note": "(centres unmarked) [CaCCinh-A01, 6-(1,1-dimethylethyl)-2-[(2-furanylcarbonyl)amino]-4,5,6,7-tetrahydrobenzo[b]thiophene-3-carboxylic acid]", "values": [{"measurement": "proliferation (BrdU incorporation)", "setting": "Capan-1 cells", "value": "decreased proliferation in Capan-1 slightly"}]}, {"compound": "siRNA targeting ANO1: Predesigned siRNA oligo from Sigma-Aldrich, 5′-CCUUCAACGUCAGUGACUU[dT][dT]-3′, 5′-AAGUCACUGACGUUGAAGG[dT][dT]-3′ (RNA, 3' dTdT, backbone not given here)", "values": [{"measurement": "ANO1 protein expression decreased to", "setting": "ANO1; AsPC-1 cells", "value": "54 ± 14", "unit": "%"}, {"measurement": "ANO1 protein expression decreased to", "setting": "ANO1; BxPC-3 cells", "value": "20 ± 7", "unit": "%"}, {"measurement": "ANO1 protein expression decreased to", "setting": "ANO1; Capan-1 cells", "value": "37 ± 8", "unit": "%"}, {"measurement": "migration (relative wound density over time)", "setting": "AsPC-1 cells", "value": "significantly decreased migration"}]}, {"compound": "CCc1c(C)nc(SCC(=O)Nc2nc(-c3ccc(OC)cc3)cs2)[nH]c1=O", "note": "[T16Ainh-A01, 2-[(5-Ethyl-1,6-dihydro-4-methyl-6-oxo-2-pyrimidinyl)thio]-N-[4-(4-methoxyphenyl)-2-thiazolyl]acetamide]", "values": [{"measurement": "proliferation (BrdU incorporation)", "setting": "HPDE cells", "value": "showed inhibited proliferation"}, {"measurement": "protection from apoptosis (Caspase-3 activity)", "setting": "[1]", "value": "less pronounced"}, {"measurement": "proliferation", "setting": "CFPAC-1", "value": "decrease in proliferation"}]}]}
